ChEMBL document CHEMBL2203276, “Design, synthesis and evaluation of novel zwitterionic compounds as PPARα/γ dual agonists (1)” (Bioorg Med Chem Lett, 2012)

Tests used:
[1] = target: T1, Peroxisome proliferator-activated receptor gamma (Homo sapiens, UniProt P37231); format: functional, cell-based
T1 sequence (P37231 whole entry): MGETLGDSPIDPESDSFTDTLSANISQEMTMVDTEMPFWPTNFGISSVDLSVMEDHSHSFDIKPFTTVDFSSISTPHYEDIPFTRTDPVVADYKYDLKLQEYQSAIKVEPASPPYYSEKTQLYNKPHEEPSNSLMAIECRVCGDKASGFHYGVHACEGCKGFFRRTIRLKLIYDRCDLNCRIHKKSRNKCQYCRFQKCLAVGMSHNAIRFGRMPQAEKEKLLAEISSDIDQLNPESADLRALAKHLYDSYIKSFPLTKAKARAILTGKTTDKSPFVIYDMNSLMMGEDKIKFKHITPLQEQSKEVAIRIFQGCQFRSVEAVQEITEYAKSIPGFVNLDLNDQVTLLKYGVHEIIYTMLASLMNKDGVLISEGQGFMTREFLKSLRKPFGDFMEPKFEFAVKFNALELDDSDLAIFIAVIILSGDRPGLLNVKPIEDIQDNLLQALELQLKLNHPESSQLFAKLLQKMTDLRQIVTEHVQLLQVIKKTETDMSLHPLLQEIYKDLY
Description: Agonist activity at GAL4-fused PPARgamma assessed as transcriptional activity by cell based assay

[2] = target: T2, Peroxisome proliferator-activated receptor alpha (Homo sapiens, UniProt Q07869); assay: Agonist activity at GAL4-fused PPARalpha assessed as transcriptional activity by cell based assay; format: functional
T2 sequence (Q07869 whole entry): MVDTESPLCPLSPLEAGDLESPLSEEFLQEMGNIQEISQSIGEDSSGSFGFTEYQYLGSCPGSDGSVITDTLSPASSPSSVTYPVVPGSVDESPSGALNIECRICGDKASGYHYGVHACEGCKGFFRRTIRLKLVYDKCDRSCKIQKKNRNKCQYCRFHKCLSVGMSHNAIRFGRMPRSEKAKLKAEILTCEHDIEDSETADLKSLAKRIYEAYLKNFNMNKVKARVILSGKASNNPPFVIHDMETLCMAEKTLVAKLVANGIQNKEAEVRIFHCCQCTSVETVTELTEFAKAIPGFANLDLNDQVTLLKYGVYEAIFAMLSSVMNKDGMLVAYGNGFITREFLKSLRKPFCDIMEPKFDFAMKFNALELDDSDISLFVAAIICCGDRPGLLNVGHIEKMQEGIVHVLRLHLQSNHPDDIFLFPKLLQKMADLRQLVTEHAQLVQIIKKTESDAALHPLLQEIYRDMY

[3] = system: Mus musculus; assay: Toxicity in db/db mouse type 2 diabetic model assessed as reduction of body weight at 10 mg/kg, po administered for 14 days; format: organism-based; design: dose 10 mg/kg, route oral; scale not given: the % may be the effect or the level left; settings: in vivo, 336 h
[4] = system: Mus musculus; assay: Antidiabetic activity in db/db mouse type 2 diabetic model assessed as reduction of plasma glucose level at 10 mg/kg, po administered for 14 days; format: functional; design: scale not given: the % may be the effect or the level left
[5] = system: Mus musculus; assay: Antidiabetic activity in db/db mouse type 2 diabetic model assessed as reduction of plasma triglyceride level at 10 mg/kg, po administered for 14 days; format: functional; design: scale not given: the % may be the effect or the level left
[6] = system: Mus musculus; assay: Toxicity in db/db mouse type 2 diabetic model assessed as reduction of body weight at 30 mg/kg, po administered for 14 days; format: organism-based; design: dose 30 mg/kg, route oral; scale not given: the % may be the effect or the level left; settings: in vivo, 336 h
[7] = system: Mus musculus; assay: Antidiabetic activity in db/db mouse type 2 diabetic model assessed as reduction of plasma triglyceride level at 30 mg/kg, po administered for 14 days; format: functional; design: scale not given: the % may be the effect or the level left
[8] = system: Mus musculus; assay: Antidiabetic activity in db/db mouse type 2 diabetic model assessed as reduction of plasma glucose level at 30 mg/kg, po administered for 14 days; format: functional; design: scale not given: the % may be the effect or the level left

SMILES	EC50 [1] [nM]	EC50 [2] [nM]	further results
COc1ccc(OC(=O)N(CC(=O)O)Cc2ccc(OCCc3nc(-c4ccccc4)oc3C)cc2)cc1 [MURAGLITAZAR]		300	
CN(CCOc1ccc(CC2SC(=O)NC2=O)cc1)c1ccccn1 (stereo not drawn) [ROSIGLITAZONE]			Activity [3]: 10.1%; Activity [4]: 54%; Activity [5]: 58%
Cc1cc(CN(Cc2ccco2)Cc2nc(-c3ccccc3)oc2C)cc(C)c1OC(C)(C)C(=O)O	4.7	1.7	Activity [3]: -7.6%; Activity [4]: 74%; Activity [5]: 88%
COc1cc(CN(Cc2ccco2)Cc2nc(-c3ccccc3)oc2C)ccc1OC(C)(C)C(=O)O	180	9	
Cc1oc(-c2ccccc2)nc1CNCc1ccc(OC(C)(C)C(=O)O)cc1	> 25000	10000	
Cc1oc(-c2ccccc2)nc1CC(=O)Nc1ccc(OC(C)(C)C(=O)O)cc1	> 25000	> 25000	
Cc1oc(-c2cccc(Br)c2)nc1CCOc1ccc(OC(C)(C)C(=O)O)cc1	800	81	
Cc1oc(-c2ccccc2)nc1CCNc1ccc(OC(C)(C)C(=O)O)cc1	16000	5200	
Cc1oc(-c2ccccc2)nc1CNc1ccc(OC(C)(C)C(=O)O)cc1	8800	7200	
Cc1oc(-c2ccccc2)nc1CCOc1ccc(OC(C)(C)C(=O)O)cc1	> 25000	500	Activity [6]: 8.4%; Activity [7]: 56%; Activity [8]: 25%

Further lines, with some results ahead:

EC50 [1] [nM]	EC50 [2] [nM]	SMILES	further results
> 25000	> 25000	Cc1oc(-c2cccc(Br)c2)nc1CN(Cc1ccc(OC(C)(C)C(=O)O)cc1)C(=O)c1ccccc1	
42	3.9	Cc1cc(CN(Cc2ccco2)Cc2nc(-c3ccccc3)oc2C)ccc1OC(C)(C)C(=O)O	
890	36	Cc1oc(-c2ccccc2)nc1CN(Cc1ccco1)Cc1ccc(OC(C)(C)C(=O)O)cc1Cl	
670	13	Cc1oc(-c2ccccc2)nc1CN(Cc1ccc(OC(C)(C)C(=O)O)cc1)Cc1ccco1	
1300	500	CCCCN(Cc1ccc(OC(C)(C)C(=O)O)cc1)Cc1nc(-c2cccc(Br)c2)oc1C	
310	8.1	Cc1oc(-c2cccc(Br)c2)nc1CN(Cc1ccc(OC(C)(C)C(=O)O)cc1)Cc1ccco1	
2200	56	Cc1oc(-c2cccc(Br)c2)nc1CN(Cc1ccccc1)Cc1ccc(OC(C)(C)C(=O)O)cc1	
700	26	COc1ccc(CN(Cc2ccc(OC(C)(C)C(=O)O)cc2)Cc2nc(-c3cccc(Br)c3)oc2C)cc1	
71	5.1	Cc1oc(-c2ccccc2)nc1CN(Cc1ccc(OC(C)(C)C(=O)O)c(Cl)c1)Cc1ccco1	
7700	670	Cc1oc(-c2cccc(Br)c2)nc1CNCc1ccc(OC(C)(C)C(=O)O)cc1	
330	32	COc1cc(OC(C)(C)C(=O)O)ccc1CN(Cc1ccco1)Cc1nc(-c2ccccc2)oc1C	
